The values that follow come from ChEMBL document CHEMBL5390256, “Sticklac-Derived Natural Compounds Inhibiting RNase H Activity of HIV-1 Reverse Transcriptase” (J Nat Prod, 2023).

Active and inactive are the calls of the source. No cut-off for these calls is given here.

For series [1], the target named is T1, Human immunodeficiency virus type 1 reverse transcriptase (Human immunodeficiency virus 1, UniProt Q72547). The series is described as follows: Inhibition of HIV-1 RNase H activity.
Series [2] addresses DNA (cytosine-5)-methyltransferase 1 (Homo sapiens, UniProt P26358). The series is described as follows: Competitive inhibition of DNMT1 (unknown origin).
The target of series [3] is Human immunodeficiency virus type 1 reverse transcriptase (Human immunodeficiency virus 1) (UniProt Q72547). The series is described as follows: Inhibition of HIV-1 RNase H using 5'-GAUCUGAGCCUGGGAGCU-3'-FAM RNA/BHQ-5'-AGCTCCCAGGCTCAGATC-3' DNA as substrate at 50 uM measured after 60 mins by FRET analysis.
The subject of series [4] is Human immunodeficiency virus 1. Kind of series: Antiviral activity against HIV-1 NL4-3 infected in human R5-MaRBLE reporter cells assessed as inhibition of viral replication measured after 7 days by Dual-Glo luciferase reporter assay. The format is functional, organism-based.
Series [5] deals with T1, Human immunodeficiency virus type 1 reverse transcriptase. The series is described as follows: Inhibition of HIV-1 RNase H using 5'-GAUCUGAGCCUGGGAGCU-3'-FAM RNA/BHQ-5'-AGCTCCCAGGCTCAGATC-3' DNA as substrate measured after 60 mins by FRET analysis.
Series [6] is described as follows: Cytotoxicity activity against human R5-MaRBLE reporter cells assessed as effect on Renilla luciferase activity measured after 7 days by Dual-Glo luciferase reporter assay. The format is toxicity, cell-based. The note with it: time 7 day. On the technique in general: A reporter such as luciferase makes a cellular process visible.

Chain of DNA (cytosine-5)-methyltransferase 1 (P26358 whole entry): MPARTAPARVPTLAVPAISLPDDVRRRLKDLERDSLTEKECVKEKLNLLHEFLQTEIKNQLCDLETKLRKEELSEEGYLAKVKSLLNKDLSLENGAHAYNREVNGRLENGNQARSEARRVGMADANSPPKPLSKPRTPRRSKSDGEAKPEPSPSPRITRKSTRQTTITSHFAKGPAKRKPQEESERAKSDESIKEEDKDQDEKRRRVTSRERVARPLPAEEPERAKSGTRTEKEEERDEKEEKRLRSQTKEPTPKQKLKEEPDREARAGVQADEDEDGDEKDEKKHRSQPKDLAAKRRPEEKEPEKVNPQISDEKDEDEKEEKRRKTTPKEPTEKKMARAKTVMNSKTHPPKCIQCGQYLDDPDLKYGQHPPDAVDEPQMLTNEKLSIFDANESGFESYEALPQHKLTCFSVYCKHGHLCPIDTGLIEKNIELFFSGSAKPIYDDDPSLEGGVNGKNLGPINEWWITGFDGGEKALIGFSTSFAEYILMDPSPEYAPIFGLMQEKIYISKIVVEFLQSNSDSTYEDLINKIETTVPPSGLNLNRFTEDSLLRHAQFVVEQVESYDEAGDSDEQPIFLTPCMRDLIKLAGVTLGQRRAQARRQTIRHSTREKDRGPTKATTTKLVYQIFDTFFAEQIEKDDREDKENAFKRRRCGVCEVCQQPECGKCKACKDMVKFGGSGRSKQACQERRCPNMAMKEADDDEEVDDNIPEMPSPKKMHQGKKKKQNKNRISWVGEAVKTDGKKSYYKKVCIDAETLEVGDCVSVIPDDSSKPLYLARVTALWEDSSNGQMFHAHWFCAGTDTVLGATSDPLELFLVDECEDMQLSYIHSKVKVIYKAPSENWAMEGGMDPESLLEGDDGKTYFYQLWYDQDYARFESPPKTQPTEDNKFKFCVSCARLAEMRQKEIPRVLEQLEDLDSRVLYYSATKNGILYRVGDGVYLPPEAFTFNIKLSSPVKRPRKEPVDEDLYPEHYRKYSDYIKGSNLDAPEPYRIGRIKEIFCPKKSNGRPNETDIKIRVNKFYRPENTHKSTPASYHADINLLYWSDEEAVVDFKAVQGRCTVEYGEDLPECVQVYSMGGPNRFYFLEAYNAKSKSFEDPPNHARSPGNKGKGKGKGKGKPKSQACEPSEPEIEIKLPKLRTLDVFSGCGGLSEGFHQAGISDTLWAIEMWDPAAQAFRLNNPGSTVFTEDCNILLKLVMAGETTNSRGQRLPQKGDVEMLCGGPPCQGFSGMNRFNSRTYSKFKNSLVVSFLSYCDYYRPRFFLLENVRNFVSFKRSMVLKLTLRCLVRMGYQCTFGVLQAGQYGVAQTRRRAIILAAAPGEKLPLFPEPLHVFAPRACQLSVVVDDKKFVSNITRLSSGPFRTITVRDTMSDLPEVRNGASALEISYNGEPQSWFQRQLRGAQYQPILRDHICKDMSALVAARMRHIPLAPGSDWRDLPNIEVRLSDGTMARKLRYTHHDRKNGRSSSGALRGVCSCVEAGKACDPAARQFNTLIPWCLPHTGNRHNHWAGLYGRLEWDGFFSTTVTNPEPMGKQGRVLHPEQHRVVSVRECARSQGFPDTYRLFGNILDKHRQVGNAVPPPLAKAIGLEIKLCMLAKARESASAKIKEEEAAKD

The term IC50 denotes the concentration that gives 50% inhibition. The low end stands for greater potency, the high end for weaker potency. For `O=C(O)c1cc(O)c2c(c1)[C@@H]([C@@H]1c3cc(C(=O)O)cc(O)c3C(=O)c3c(O[C@@H]4O[C@H](CO)[C@@H](O)[C@H](O)[C@H]4O)cccc31)c1cccc(O[C@H]3O[C@@H](CO)[C@H](O)[C@@H](O)[C@@H]3O)c1C2=O`, in series [1], the midpoint of inhibition, the IC50, lay at 2 µM.
For orientation: Ki means the dissociation constant of the complex between target and ligand, obtained from inhibition or displacement. A high value points to lower affinity. In general, EC50 refers to the concentration at which the effect is half-maximal. Usually CC50 stands for the concentration at which the toxic effect on the cells reaches its halfway point. As for `CC(=O)NCCc1ccc(O)c(-c2c(O)c(O)c3c(c2O)C(=O)c2c(cc(O)c(C(=O)O)c2C(=O)O)C3=O)c1` [LACCACID ACID A], affinity in series [2] was put at a Ki of 0.3 µM. For the same molecule, the inhibition result in series [3] was “Active”. For the same molecule, the concentration for a half-maximal effect (EC50) result in series [4] (r5-marble) was “Not Active”. This molecule gave an IC50 in series [5] of 64 µM. In addition, the half-maximal cytotoxic concentration (CC50) at 168 h in series [6] was 39.5 µM.
Take `NCCc1ccc(O)c(-c2c(O)c(O)c3c(c2O)C(=O)c2c(cc(O)c(C(=O)O)c2C(=O)O)C3=O)c1`: in series [3], the inhibition result is “Active”. Besides, in series [5], inhibition was half-maximal at 44 µM (IC50).
Turning to `N[C@@H](Cc1ccc(O)c(-c2c(O)c(O)c3c(c2O)C(=O)c2c(cc(O)c(C(=O)O)c2C(=O)O)C3=O)c1)C(=O)O`, the inhibition entry in series [3] is “Active”. In addition, the half-maximal effective concentration (EC50) in series [4] (Human immunodeficiency virus 1, NL4-3, R5-MaRBLE, 168 h, read-out: EC50) was determined as 19.2 µM. Besides, in series [5], the midpoint of inhibition, the IC50, lay at 8.1 µM. For the same molecule, the CC50 at 168 h in series [6] was found to be 43.9 µM.
`O=C(O)c1cc(O)c2c(c1)[C@@H]([C@H]1c3cc(C(=O)O)cc(O)c3C(=O)c3c(O[C@H]4O[C@@H](CO)[C@H](O)[C@@H](O)[C@@H]4O)cccc31)c1cccc(O[C@@H]3O[C@H](CO)[C@@H](O)[C@H](O)[C@H]3O)c1C2=O`: in series [1], the concentration for half-maximal inhibition (IC50) came to 2 µM.
